From PMC5854716, “Synthesis, molecular docking, ctDNA interaction, DFT calculation and evaluation of antiproliferative and anti-Toxoplasma gondii activities of 2,4-diaminotriazine-thiazole derivatives” (Medicinal Chemistry Research, 2018) come the findings set out here.

Data set [1] relates to biphenotypic B myelomonocytic leukemia MV4-11 cells. The data set can be described thus: In vitro antiproliferative assay (MTT), MV4-11. In kind it is cell-based, human. Particulars: mean ± SD; for IC50: Homo sapiens, MV4-11, 72 h exposure; for IC50 MV4-11: 72 h exposure. The method, then:
Biphenotypic B myelomonocytic leukemia MV4-11, human lung carcinoma A549, human breast carcinoma MCF-7, and normal mouse fibroblast BALB/3T3 cells were obtained from American Type Culture Collection (Rockville, Maryland, USA). All the cell lines are being maintained at the Institute of Immunology and Experimental Therapy, Wroclaw, Poland. MV4-11 cells were cultured in RPMI 1640 medium (Gibco, UK) with 2 mM L-glutamine adjusted to contain 1.0 mM sodium pyruvate, and 10% fetal bovine serum (FBS) (all from Sigma-Aldrich, Germany). A549 cells were cultured in RPMI 1640+ Opti-MEM (1:1) (both from Gibco, UK), MCF-7 cells in Eagle medium (IIET, Wroclaw, Poland), BALB/3T3 in Dulbecco medium (IIET, Poland) supplemented with 2 mM L-glutamine and 1.0 mM sodium pyruvate, 10% fetal bovine serum (all from Sigma-Aldrich, Germany). The MCF-7 cell culture was supplemented with 0.8 mg/l of insulin (Sigma-Aldrich, Germany). All culture media were supplemented with 100 units/ml penicillin, and 100 µg/ml streptomycin (both from Polfa Tarchomin S.A., Poland). All cell lines were grown at 37 °C with 5% CO2 humidified atmosphere (Łączkowski et al. [2014], [2016a]).
Prior to usage, the compounds were dissolved in DMSO and culture medium (1: 9) to the concentration of 1 mg/ml, and subsequently diluted in culture medium to reach the required concentrations (0.1, 1, 10, and 100 µg/ml) (Łączkowski et al. [2014], [2016a]).
Twenty-four hours prior to the addition of the tested compounds, the cells counted using Burker hemocytometer were plated in 96-well plates (Sarstedt, Germany) at a density of 1 × 10^4 cells per well. The assay was performed after 72 h of exposure to varying concentrations of the tested agents. The in vitro cytotoxic effect of all agents was examined using the SRB assay for adherent cells (A549, MCF-7, and BALB/3T3) or MTT assay for leukemia cells (MV4-11) as described previously. The results were calculated as an inhibitory concentration 50 (IC50)—the concentration of tested agent which inhibits proliferation of 50% of the cancer cell population. Each compound in each concentration was tested in triplicate in a single experiment, which was repeated 3–7 times (Rubinstein et al. [1990]; Bramson et al. [1995]).
Twenty microliter of MTT solution (MTT: 3-(4,5-dimethylthiazol-2-yl)-2,5-diphenyltetrazolium bromide, stock solution: 5 mg/ml) was added to each well and incubated for 4 h. After the incubation time was complete, 80 µl of the lysis mixture was added to each well (lysis mixture: 225 ml dimethylformamide, 67.5 g sodium dodecyl sulfate and 275 ml of distilled water). The optical densities of the samples were read after 24 h on a Synergy H4 (BioTek Instruments USA) photometer microtiter plate reader at 570 nm (Sidoryk et al. [2012]). All of chemicals were obtained from Sigma-Aldrich, Germany.

Data set [2] can be described thus: Cell viability assay (MTT), VERO. Type of data set: cell-based, Cercopithecus aethiops. The following applies: African green monkey (Cercopithecus aethiops), VERO kidney epithelial cells. The method in brief:
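L929 and VERO cells seeded at 1.0 × 10^4/well, attached 24 h, then exposed 24 h to compounds at 0.9–125.00 μg/ml (from DMSO stock). MTT (1 mg/ml) added for 2 h at 37 °C, formazan dissolved in DMSO, OD read at 550 nm. Viability expressed as percentage of 2.5% DMSO-treated controls; triplicate.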

For orientation: IC50 means the concentration that inhibits the measured activity by half. As a reminder, the viability is a read-out of living cells in per cent, often relative to untreated cells. For the compound `C/C(=N\Nc1nc(-c2ccc(Cl)cc2)cs1)c1ccc(Nc2nc(N)nc(N)n2)cc1` [Compound 4b, (E)-N^2-(4-(1-(2-(4-(4-chlorophenyl)-1,3-thiazol-2-yl)hydrazinylidene)ethyl)phenyl)-1,3,5-triazine-2,4,6-triamine], in data set [1], the half-inhibitory concentration (IC50) came out at 1.89 ± 0.45 µg/mL. Also, in data set [2], the viability at 24 h, 0.9 µg/ml amounted to 93.5%; the viability at 24 h, 1.8 µg/ml came out at 95.8%; the viability at 24 h, 3.9 µg/ml came out at 90.1%; the viability at 24 h, 7.8 µg/ml is 94.7%. For the same compound, in data set [2], the viability at 24 h, 15.6 µg/ml was found to be 103%; the viability at 24 h, 31.2 µg/ml turned out to be 115%; the viability at 24 h, 62.5 µg/ml stood at 115%; the viability at 24 h, 125 µg/ml came to 113%.

On to `C/C(=N\Nc1nc(-c2ccc(F)cc2)cs1)c1ccc(Nc2nc(N)nc(N)n2)cc1` [Compound 4a, (E)-N^2-(4-(1-(2-(4-(4-fluorophenyl)-1,3-thiazol-2-yl)hydrazinylidene)ethyl)phenyl)-1,3,5-triazine-2,4,6-triamine], for which the IC50 in data set [1] was determined as 3.21 ± 0.454 µg/mL. In addition, in data set [2], the viability at 24 h, 0.9 µg/ml came out at 90.5%; the viability at 24 h, 1.8 µg/ml is 97.6%; the viability at 24 h, 3.9 µg/ml came out at 100%; the viability at 24 h, 7.8 µg/ml came to 95.9%. In data set [2], the viability at 24 h, 15.6 µg/ml is 103%; the viability at 24 h, 31.2 µg/ml came out at 107%; the viability at 24 h, 62.5 µg/ml amounted to 105%; the viability at 24 h, 125 µg/ml is 100%.

Turning to `CC(=O)Nc1ccc(-c2csc(N/N=C(\C)c3ccc(Nc4nc(N)nc(N)n4)cc3)n2)cc1` [Compound 4g, (E)-N^2-(4-(2-(2-(1-(4-(4,6-diamino-1,3,5-triazin-2-yloamino)phenyl)ethylidene)hydraziny)thiazol-4-yl)phenyl)-acetamide], the “IC50 MV4-11” value in data set [1] was found to be 2.76 ± 0.521 µg/mL.

Consider `C/C(=N\Nc1nc(-c2ccc(I)cc2)cs1)c1ccc(Nc2nc(N)nc(N)n2)cc1` [Compound 4e, (E)-N^2-(4-(1-(2-(4-(4-iodophenyl)-1,3-thiazol-2-yl)hydrazinylidene)ethyl)phenyl)-1,3,5-triazine-2,4,6-triamine], for which the IC50 in data set [1] was determined as 1.13 ± 0.25 µg/mL. Further, in data set [2], the viability at 24 h, 0.9 µg/ml was 100%; the viability at 24 h, 1.8 µg/ml stood at 100%; the viability at 24 h, 3.9 µg/ml came to 97%; the viability at 24 h, 7.8 µg/ml is 87.3%. Moreover, in data set [2], the viability at 24 h, 15.6 µg/ml worked out at 101%; the viability at 24 h, 31.2 µg/ml stood at 113%; the viability at 24 h, 62.5 µg/ml came out at 117%; the viability at 24 h, 125 µg/ml worked out at 113%.

Consider `C/C(=N\Nc1nc(-c2ccccc2)cs1)c1ccc(Nc2nc(N)nc(N)n2)cc1` [Compound 4k, (E)-N^2-(4-(1-(2-(4-phenyl-1,3-thiazol-2-yl)hydrazinylidene)ethyl)phenyl)-1,3,5-triazine-2,4,6-triamine], for which the 50% inhibitory concentration (IC50) in data set [1] was determined as 2.3 ± 0.97 µg/mL. In data set [2], the viability at 24 h, 0.9 µg/ml stood at 91.9%; the viability at 24 h, 1.8 µg/ml was 95.5%; the viability at 24 h, 3.9 µg/ml was determined as 99.3%; the viability at 24 h, 7.8 µg/ml was 95.7%. Besides, in data set [2], the viability at 24 h, 15.6 µg/ml came to 104%; the viability at 24 h, 31.2 µg/ml is 106%; the viability at 24 h, 62.5 µg/ml is 113%; the viability at 24 h, 125 µg/ml stood at 113%.

Regarding `C/C(=N\Nc1nc(-c2ccc(Br)cc2)cs1)c1ccc(Nc2nc(N)nc(N)n2)cc1` [Compound 4d, (E)-N^2-(4-(1-(2-(4-(4-bromophenyl)-1,3-thiazol-2-yl)hydrazinylidene)ethyl)phenyl)-1,3,5-triazine-2,4,6-triamine], the IC50 in data set [1] is 2.14 ± 0.464 µg/mL. Further, in data set [2], the viability at 24 h, 0.9 µg/ml was 99.9%; the viability at 24 h, 1.8 µg/ml turned out to be 94.4%; the viability at 24 h, 3.9 µg/ml came to 90.1%; the viability at 24 h, 7.8 µg/ml is 86%. For the same compound, in data set [2], the viability at 24 h, 15.6 µg/ml was 104%; the viability at 24 h, 31.2 µg/ml is 114%; the viability at 24 h, 62.5 µg/ml came out at 100%; the viability at 24 h, 125 µg/ml was 112%.

Regarding `C/C(=N\Nc1nc(-c2ccc(NS(C)(=O)=O)cc2)cs1)c1ccc(Nc2nc(N)nc(N)n2)cc1` [Compound 4j, (E)-N-(4-(2-(2-(1-(4-(4,6-diamino-1,3,5-triazin-2-yloamino)phenyl)ethylidene)hydrazinyl)thiazol-4-yl)phenyl)-methanesulfonamide], the “IC50 MV4-11” value in data set [1] worked out at 1.73 ± 0.091 µg/mL.

Turning to `C/C(=N\Nc1nc(-c2cc3ccccc3oc2=O)cs1)c1ccc(Nc2nc(N)nc(N)n2)cc1` [Compound 4f, (E)-3-(2-(2-(1-(4-(4,6-diamino-1,3,5-triazin-2-yloamino)phenyl)ethylidene)hydrazinyl)thiazol-4-yl)-2H-chromen-2-on], the “IC50 MV4-11” value in data set [1] is 3.08 ± 0.851 µg/mL.

Consider `C/C(=N\Nc1nc(-c2ccc(C)cc2)cs1)c1ccc(Nc2nc(N)nc(N)n2)cc1` [Compound 4c, (E)-N^2-(4-(1-(2-(4-(4-tolyl)-1,3-thiazol-2-yl)hydrazinylidene)ethyl)phenyl)-1,3,5-triazine-2,4,6-triamine], for which the IC50 in data set [1] came out at 3.09 ± 0.726 µg/mL. In addition, in data set [2], the viability at 24 h, 0.9 µg/ml was 92.4%; the viability at 24 h, 1.8 µg/ml is 102%; the viability at 24 h, 3.9 µg/ml worked out at 99%; the viability at 24 h, 7.8 µg/ml stood at 101%. For the same compound, in data set [2], the viability at 24 h, 15.6 µg/ml is 99.6%; the viability at 24 h, 31.2 µg/ml was determined as 102%; the viability at 24 h, 62.5 µg/ml came to 112%; the viability at 24 h, 125 µg/ml amounted to 109%.

For `C/C(=N\Nc1nc(-c2ccc([N+](=O)[O-])cc2)cs1)c1ccc(Nc2nc(N)nc(N)n2)cc1` [Compound 4h, (E)-N^2-(4-(1-(2-(4-(4-nitrophenyl)-1,3-thiazol-2-yl)hydrazinylidene)ethyl)phenyl)-1,3,5-triazine-2,4,6-triamine], the half-inhibitory concentration (IC50) in data set [1] was 3.01 ± 0.476 µg/mL. In data set [2], the viability at 24 h, 0.9 µg/ml came to 104%; the viability at 24 h, 1.8 µg/ml is 99.4%; the viability at 24 h, 3.9 µg/ml came to 106%; the viability at 24 h, 7.8 µg/ml came to 109%. In data set [2], the viability at 24 h, 15.6 µg/ml worked out at 110%; the viability at 24 h, 31.2 µg/ml stood at 109%; the viability at 24 h, 62.5 µg/ml was found to be 109%; the viability at 24 h, 125 µg/ml worked out at 104%.

Regarding `C/C(=N\Nc1nc(-c2ccc(Cl)c(Cl)c2)cs1)c1ccc(Nc2nc(N)nc(N)n2)cc1` [Compound 4i, (E)-N^2-(4-(1-(2-(4-(3,4-dichlorophenyl)-1,3-thiazol-2-yl)hydrazinylidene)ethyl)phenyl)-1,3,5-triazine-2,4,6-triamine], in data set [1], the IC50 was 1.37 ± 0.186 µg/mL. Also, in data set [2], the viability at 24 h, 0.9 µg/ml is 97.5%; the viability at 24 h, 1.8 µg/ml amounted to 93.7%; the viability at 24 h, 3.9 µg/ml was 93.9%; the viability at 24 h, 7.8 µg/ml amounted to 92.6%. Also, in data set [2], the viability at 24 h, 15.6 µg/ml turned out to be 97.3%; the viability at 24 h, 31.2 µg/ml was found to be 112%; the viability at 24 h, 62.5 µg/ml worked out at 111%.
